From patent publication US8455214B2, “Methods for determining chemotherapeutic agents targeting alpha-glucan pathways and uses thereof” (priority 2009, dated 2013)

Tested on: Mtb ΔRv3032 mutant
Type: cell-based

OCC1=C[C@@H](N[C@H]2C[C@H](CO)[C@@H](O[C@H]3O[C@@H](CO)[C@H](O)[C@@H](O)[C@@H]3O)[C@H](O)[C@H]2O)[C@H](O)[C@@H](O)[C@@H]1O [VA, Validamycin A]
killing (reduction of viability, CFU) (over 7 days, cultures inoculated at 5×10^6 CFU/ml): 3 log
effect of over-expression of the putative target TreS (ΔRv3032 mutant with TreS from an integrative single-copy plasmid): marked resistance
